Test results from patent US20240132492A1, “PYRIDOPYRIMIDINE-BASED COMPOUND AND APPLICATION THEREOF” (JINAN UNIVERSITY, priority 2021, published 2024).

Key:
Type in all cases: cell-based
PC-9 = assay: CCK-8 tumor cell proliferation, PC-9; conditions: Homo sapiens, PC-9 cells, 72 hours
Method: (§1) Tumor cells (see Table 2 to Table 5) were inoculated in 96-well plates in complete culture medium (2000-3000 cells/well). After overnight incubation, the compounds with different concentrations (0.000508 μM-10 μM) were used to treat the cells separately for 72 hours. CCK-8 (Cell Counting Kit 8, Dojindo Laboratories, Kumamoto, Japan) experiment was used to evaluate cell proliferation. GraphPad Prism 5.0 software (La Jolla, CA) was used to calculate the half-maximal inhibitory concentration (IC50) values by fitting the concentration response curve. Each IC50 value was represented as an average value±SD.

A431 = assay: CCK-8 tumor cell proliferation, A431; conditions: Homo sapiens, A-431, A431 cells, 72 hours
Method: as §1

HCC827 = assay: CCK-8 tumor cell proliferation, HCC827; conditions: Homo sapiens, HCC827 cells, 72 hours
Method: as §1

H1975 = assay: CCK-8 tumor cell proliferation, H1975; conditions: 72 hours
Method: as §1

H1299 = assay: CCK-8 tumor cell proliferation, H1299; conditions: Homo sapiens, NCI-H1299, H1299 cells, 72 hours
Method: as §1

H1975OR = assay: CCK-8 tumor cell proliferation, H1975OR; conditions: H1975OR cells (Osimertinib resistant), 72 hours
Method: (§2) Cell line: Non-small cell lung cancer H1975-OR cell line, which is an Osimertinib resistant H1975 cell line, and could be obtained through low dose gradual addition culture. Specific method: H1975 cells were spread in a 10 cm culture dish at a convergence rate of 60-70%, added 50 nM of Osimertinib to the culture medium. After the cell state stabilized, the concentration of Osimertinib was gradually double to 3 μM.
as §1

AKT3 = AKT3 (Homo sapiens, UniProt Q9Y243); assay: Western Blot, degradation of AKT3 protein in H1975-OR cells; set-up: endogenous in cells; host or cells: H1975-OR (osimertinib-resistant H1975); conditions: 24 hours, maximum degradation rate; for Dmax at 1 µM: 1000 nM
Method: as §2
(§3) Conventional Western Blot (immunoblotting) was used for detection, as follows: a certain number of H1975-OR cells were planted on a 96 well plate, adherent cultured in an incubator overnight, and added a certain concentration of compound to act for 24 hours. 1×SDS lysis buffer with protease and phosphatase inhibitors was used to lyse cells. Cell lysates were separated by SDS-PAGE and transferred to PVDF membrane. Then, at room temperature, the PCDF membrane was taken out and immersed in a sealing solution (5% BSA TBS solution containing 0.5% Tween-20) for sealing treatment for 1 hour, and then incubated with a specific primary antibody at 4° C. overnight. The imprints were washed with TBST and incubated with horseradish peroxidase (HRP) labeled secondary antibodies at room temperature for 2 hours. Finally, ECL plus fluorescence detection reagent (Thermo Scientific, Waltham, MA) was used for protein development, and the Amersham Imager 600 system (GE, America) was used for photography. The detection results were processed using ImageJ software to obtain the grayscale value G (Density).

AKT2 = target: T1, AKT2 (Homo sapiens, UniProt P31751); assay: Western Blot, degradation of AKT2 protein in H1975-OR cells; conditions: 24 hours, maximum degradation rate; for Dmax at 1 µM: 1000 nM
T1 construct: AKT1, AKT2, and AKT3 proteins in H1975-OR cells; endogenous in cells; host or cells: H1975-OR (osimertinib-resistant H1975)
Method: as §2, §3

AKT1 = target: T2, AKT1 (Homo sapiens, UniProt P31749); assay: Western Blot, degradation of AKT1 protein in H1975-OR cells; conditions: 24 hours, maximum degradation rate; for Dmax at 1 µM: 1000 nM
T2 construct: AKT1, AKT2, and AKT3 proteins in H1975-OR cells; endogenous in cells; host or cells: H1975-OR (osimertinib-resistant H1975)
Method: as §2, §3

[1] = Homo sapiens, NCI-H1975, H1975 cells

Chain of AKT3 (Q9Y243 whole entry): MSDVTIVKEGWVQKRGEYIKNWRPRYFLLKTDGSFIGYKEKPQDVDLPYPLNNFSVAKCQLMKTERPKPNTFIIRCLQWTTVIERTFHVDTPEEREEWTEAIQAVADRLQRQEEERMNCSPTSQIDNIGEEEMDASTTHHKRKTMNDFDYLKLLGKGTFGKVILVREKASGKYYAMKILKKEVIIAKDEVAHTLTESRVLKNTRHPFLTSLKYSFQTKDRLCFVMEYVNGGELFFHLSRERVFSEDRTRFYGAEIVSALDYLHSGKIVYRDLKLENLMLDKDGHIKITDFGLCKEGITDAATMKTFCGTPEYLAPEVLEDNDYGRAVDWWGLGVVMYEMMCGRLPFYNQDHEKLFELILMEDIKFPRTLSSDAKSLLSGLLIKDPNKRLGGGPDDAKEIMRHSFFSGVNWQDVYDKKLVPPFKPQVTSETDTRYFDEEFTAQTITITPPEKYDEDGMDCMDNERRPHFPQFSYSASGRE
T1 sequence (P31751 whole entry): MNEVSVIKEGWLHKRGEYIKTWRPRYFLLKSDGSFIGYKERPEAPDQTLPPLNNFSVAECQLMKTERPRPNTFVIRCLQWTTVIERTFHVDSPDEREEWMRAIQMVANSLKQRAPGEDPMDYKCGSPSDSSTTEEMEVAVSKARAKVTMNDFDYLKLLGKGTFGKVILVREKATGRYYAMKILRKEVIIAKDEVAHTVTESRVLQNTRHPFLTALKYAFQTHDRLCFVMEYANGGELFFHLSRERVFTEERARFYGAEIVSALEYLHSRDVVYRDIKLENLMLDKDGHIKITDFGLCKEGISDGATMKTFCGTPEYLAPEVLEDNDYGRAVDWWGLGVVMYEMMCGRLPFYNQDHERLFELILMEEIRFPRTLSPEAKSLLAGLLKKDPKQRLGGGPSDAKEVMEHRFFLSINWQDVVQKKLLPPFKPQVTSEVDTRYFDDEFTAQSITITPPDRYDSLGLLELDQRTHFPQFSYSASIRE
T2 sequence (P31749 whole entry): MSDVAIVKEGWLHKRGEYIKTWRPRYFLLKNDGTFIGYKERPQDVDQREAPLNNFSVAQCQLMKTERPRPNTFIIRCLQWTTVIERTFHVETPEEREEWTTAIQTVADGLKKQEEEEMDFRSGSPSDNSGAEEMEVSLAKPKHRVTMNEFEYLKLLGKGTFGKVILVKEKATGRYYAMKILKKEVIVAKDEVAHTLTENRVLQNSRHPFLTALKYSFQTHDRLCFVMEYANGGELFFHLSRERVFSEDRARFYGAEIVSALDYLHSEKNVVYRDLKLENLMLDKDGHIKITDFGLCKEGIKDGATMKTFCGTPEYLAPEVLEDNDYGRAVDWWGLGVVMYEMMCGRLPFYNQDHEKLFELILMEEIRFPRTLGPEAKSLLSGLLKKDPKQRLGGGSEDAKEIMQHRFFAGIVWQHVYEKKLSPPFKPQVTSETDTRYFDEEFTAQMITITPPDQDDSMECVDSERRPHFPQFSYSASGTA

Row | Molecule | IC50 (PC-9) [µM] | IC50 (A431) [µM] | IC50 (HCC827) [µM] | IC50 (H1975; [1]) [µM] | IC50 (H1299) [µM] | IC50 (H1975OR) [µM] | Dmax at 1 µM (AKT3) [%] | Dmax at 1 µM (AKT2) [%] | Dmax at 1 µM (AKT1) [%] | Dmax (%) at 1000 nM AKT3 (AKT3) [%] | Dmax (%) at 1000 nM AKT2 (AKT2) [%] | IC50 (H1975; H1975 cells) [µM] | Dmax (%) at 1000 nM AKT1 (AKT1) [%]
1 | COc1cc(N2CCN(CCCCCCCCCCCCNC(=O)CC34CC5CC(CC(C5)C3)C4)CC2)ccc1Nc1ncc2c(C)cc(=O)n(-c3ccc(NC(=O)C4CC4)cc3)c2n1 [ZX-HYT-15, N-(4-(2-((4-(4-(12-(2-(((3R, 5R, 7R)-adamantan-1-yl)acetylamino)dodecyl)piperazin-1-yl)-2-methoxyphenyl)amino)-5-methyl-7-oxypyridino [2,3-d]pyrimidin-8 (7H)-yl)phenyl)cyclopropane formamide] | 4.8 ± 0.501 | > 10 | > 10 | > 10 | > 10 | > 10 |  |  |  |  |  |  | 
2 | COc1cc(N2CCN(CCCCCCCCCCCCNC(=O)CC34CC5CC(CC(C5)C3)C4)CC2)ccc1Nc1ncc2c(C)cc(=O)n(C3CCCC3)c2n1 [ZX-HYT-24, 2-(((3R, 5R, 7R)-adamantan-1-yl)-N-(12-(4-(4-(8-cyclopentyl-5-methyl-7-oxy-7,8-dihydropyridinyl [2,3-d]pyrimidin-2-yl)amino)-3-methoxyphenyl)piperazin-1-yl)dodecyl) acetamide] |  | 0.212 ± 0.0653 | 1.4 ± 0.248 | 2.67 ± 0.471 |  | 0.734 ± 0.00594 | 51.5 | 0 | 0 |  |  |  | 
3 | COc1cc(N2CCN(CCCCCCCCNC(=O)C3CCC(F)(F)CC3)CC2)ccc1Nc1ncc2c(C)cc(=O)n(-c3cccc(NC(=O)C4CC4)c3)c2n1 [ZX-HYT-34] |  |  |  | 1.15 ± 0.42 |  | 0.25 ± 0.12 | 56.6 | 67.5 | 55.4 |  |  |  | 
4 | CCC(=O)Nc1cccc(-n2c(=O)cc(C)c3cnc(Nc4ccc(N5CCN(CCCCCCCCNC(=O)CC67CC8CC(CC(C8)C6)C7)CC5)cc4OC)nc32)c1 [ZX-HYT-49, N-(3-(2-((4-(4-(8-(2-((3R, 5R, 7R)-adamantan-1-yl)acetylamino)octyl)piperazin-1-yl)-2-methoxyphenyl))amino)-5-methyl-7-oxypyridino [2,3-d]pyrimidin-8 (7H)-yl) phenyl) propionamide] |  |  |  | 0.0958 ± 0.0126 |  | 0.0346 | 61.6 | 26.1 | 0 |  |  |  | 
5 | COc1cc(N2CCN(CCCCCCCCNC(=O)C[C@]34CC5C[C@@](C)(C[C@@](C)(C5)C3)C4)CC2)ccc1Nc1ncc2c(C)cc(=O)n(-c3cccc(NC(=O)C4CC4)c3)c2n1 [ZX-HYT-59, N-(3-(2-((4-(4-(8-(2-((1S, 3R, 5S, 7R)-3,5-dimethyladamantan-1-yl)acetamido)octyl)piperazin-1-yl)-2-methoxyphenyl)amino)-5-methyl-7-oxypyridino [2,3-d]pyrimidin-8 (7H)-yl)phenyl) cyclopropanilamide] |  |  |  | 0.121 ± 0.0449 |  | 0.0939 ± 0.004 | 38.9 | 24.7 | 30.3 |  |  |  | 
6 | COc1cc(N2CCN(CCCCCCCCCCCCNC(=O)CC34CC5CC(CC(C5)C3)C4)CC2)ccc1Nc1ncc2c(C)cc(=O)n(-c3cccc(N(C)C)c3)c2n1 [ZX-HYT-43, 2-((3R, 5R, 7R)-adamantan-1-yl)-N-(12-(4-(4-((8-(3-(dimethylamino)phenyl)-5-methyl-7-oxy-7,8-dihydropyridino [2,3-d]pyrimidin-2-yl)amino)-3-methoxyphenyl)piperazin-1-yl)dodecyl) acetamide] |  |  |  | 0.257 ± 0.0423 |  | 0.172 ± 0.0204 | 37.9 | 30.5 | 57.5 |  |  |  | 
7 | COc1cc(N2CCN(CCCCCCCCCCCCNC(=O)CC34CC5CC(CC(C5)C3)C4)CC2)ccc1Nc1ncc2c(C)cc(=O)n([C@H]3CC[C@@H](NC(=O)C4CC4)C3)c2n1 [ZX-HYT-20, N-((1R,3S)-3-(2-((4-(4-(12-(2-((3R, 5R, 7R)-adamantan-1-yl)acetylamino)dodecyl)piperazin-1-yl)-2-methoxyphenyl)amino)-5-methyl-7-oxypyridino [2,3-d]pyrimidin-8 (7H)-yl)cyclopentyl) cyclopropane formamide] | 0.295 | 0.106 |  |  |  |  |  |  |  |  |  |  | 
8 | COc1cc(N2CCN(CCCCCCCCCCCCNC(=O)CC34CC5CC(CC(C5)C3)C4)CC2)ccc1Nc1ncc2c(C)cc(=O)n([C@H]3CCCN(C(=O)C4CC4)C3)c2n1 [ZX-HYT-22] |  |  |  | 0.014 |  | 0.00682 | 25 | 0 | 0 |  |  |  | 
9 | COc1cc(N2CCN(CCCCCCCCCCCCNC(=O)CC34CC5CC(CC(C5)C3)C4)CC2)ccc1Nc1ncc2c(C)cc(=O)n(-c3cccc(NCC4CNC4)c3)c2n1 [ZX-HYT-44, 2-((3R, 5R, 7R)-adamantan-1-yl)-N-(12-(4-(4-((8-(3-((azacyclobutane-3-ylmethyl)amino)phenyl)-5-methyl-7-oxy-7,8-dihydropyridino [2,3-d]pyrimidin-2-yl)amino)-3-methoxyphenyl)piperazin-1-yl)dodecanyl) acetamide] |  |  |  | 5.39 ± 0.293 |  | 8.09 ± 0.432 | 40.1 | 23.6 | 22.4 |  |  |  | 
10 | COc1cc(N2CCN(CCCCCCCCCCCCNC(=O)CC34CC5CC(CC(C5)C3)C4)CC2)ccc1Nc1ncc2c(C)cc(=O)n(-c3cccc(OCC4CC4)c3)c2n1 [ZX-HYT-40, 2-((3R, 5R, 7R)-adamantan-1-yl)-N-(12-(4-(4-((8-(3-(cyclopropylmethoxy)phenyl)-5-methyl-7-oxo-) 7,8-dihydropyridino [2,3-d]pyrimidin-2-yl)amino)-3-methoxyphenyl)piperazin-1-yl) dodecyl) acetamide] |  |  |  | 0.0864 ± 0.0296 |  | 0.0609 ± 0.014 | 53 | 30.7 | 32 |  |  |  | 
11 | COc1cc(N2CCN(CCCCCCCCNC(=O)C3CC3)CC2)ccc1Nc1ncc2c(C)cc(=O)n(-c3cccc(NC(=O)C4CC4)c3)c2n1 [ZX-HYT-62] |  |  |  | 0.0551 ± 0.0232 |  | 0.0487 ± 0.004 | 18.8 | 15.1 | 28.4 |  |  |  | 
12 | COc1cc(N2CCN(CCCCCCCCNC(=O)C3C[C@H]4C=C[C@@H]3C4)CC2)ccc1Nc1ncc2c(C)cc(=O)n(-c3cccc(NC(=O)C4CC4)c3)c2n1 (stereo partly drawn) [ZX-HYT-60] |  |  |  | 0.135 ± 0.0948 |  | 0.107 ± 0.0194 | 18.9 | 0 | 13 |  |  |  | 
13 | N-(3-(2-((4-(4-(12-((2-((3R, 5R, 7R)-adamantan-1-yl) ethyl) amino) dodecyl) piperazin-1-yl)-2-methoxyphenyl) amino)-5-methyl-7-oxypyrano [2,3-d] pyrimidin-8 (7H)-yl) phenyl) cyclopropane formamide [ZX-HYT-29] |  |  |  |  |  | 0.98 ± 0.25 |  |  |  | 54.7 | 36.43 | 0.98 ± 0.21 | 57.51
14 | COc1cc(N2CCN(CCCCCCCCN)CC2)ccc1Nc1ncc2c(C)cc(=O)n(-c3cccc(NC(=O)C4CC4)c3)c2n1 [ZX-HYT-31] |  |  |  | 0.145 ± 0.101 |  | 0.217 ± 0.0367 | 55.5 | 30.6 | 0 |  |  |  | 
15 | COc1cc(N2CCN(CCCCCCCCNC(=O)CC34CC5CC(CC(C5)C3)C4)CC2)ccc1Nc1ncc2c(C)cc(=O)n(-c3cccc(NC(=O)C(C)(C)C)c3)c2n1 [ZX-HYT-48, N-(3-(2-((4-(4-(8-(2-((3R, 5R, 7R)-adamantan-1-yl)acetylamino)octyl)piperazin-1-yl)-2-methoxyphenyl))amino)-5-methyl-7-oxypyridino [2,3-d]pyrimidin-8 (7H)-yl) phenyl) neopentanamide] |  |  |  | 0.187 ± 0.0357 |  | 0.105 ± 0.052 | 60.6 | 34.2 | 0 |  |  |  | 
